Patent US8642559B2, “C-terminal domain truncation of mGluR1α by calpain and uses thereof” (priority 2006, dated 2014)

What was measured:
Assay type in all cases: cell-based
myc-mGluR1α [1] = biological target: T1, myc-mGluR1α (Rattus norvegicus, UniProt P23385); assay: DHPG-induced calcium transients in HEK293 cells transfected with myc-mGluR1α (calcium imaging); details: 100 μM DHPG; myc-mGluR1α-transfected HEK293 cells
From the text: (§1) In this set of experiments, HEK293 cells were co-transfected with DsRed (red fluorescent protein) and wild-type myc-mGluR1α or truncated myc-mGluR1α936Δ. The mGluRI agonist DHPG was used to induce mGluR1α-mediated calcium transients. In FIG. 5A, photos in the left show the expression of DsRed, labeling transfected cells; photos in the middle illustrate the fluorescent signal from the calcium indicator Oregon green 488 BAPTA-1 AM before and after DHPG application; photos in the right are obtained by subtracting “before DHPG” from “after DHPG”, thus representing DHPG-induced calcium transients.
(§2) The main signaling mechanism activated by mGluR1α consists of PI hydrolysis through G-protein and phospholipase C, which eventually leads to calcium release from internal calcium stores. Therefore we first performed calcium imaging to determine whether mGluR1α remains functional following C-terminal truncation. Wild-type mGluR1 (myc-mGluR1α) or the truncated form (myc-mGluR1α936Δ) was cotransfected with DsRed into HEK293 cells. Forty-eight hours after transfection, cells were loaded with a calcium reporter, Oregon green 488 BAPTA-1 AM (0.63% in extracellular solution).

myc-mGluR1α [2] = assay: as above; details: 100 μM DHPG; untransfected cells
From the text: as §1, §2

myc-mGluR1α [3] = biological target: T1, myc-mGluR1α; assay: DHPG-induced whole-cell currents in HEK293 cells transfected with myc-mGluR1α; details: 100 μM DHPG
Experimental: (§3) Representative current traces recorded from HEK293 cells transfected with either myc-mGluR1α (left panel) or myc-mGluR1α936Δ (right panel) and GIRK1, GIRK2 (top) or TRPC1 (bottom). DHPG (100 μM in extracellular solution) was applied using a fast perfusion system for the duration indicated by the scale bars. Each trace is the average of 5 continuous sweeps. The bar graphs represent the means±S.E.M. of DHPG-induced current amplitude recorded in cells transfected with myc-mGluR1α or myc-mGluR1α936Δplus GIRK1, GIRK2 (top right) or TRPC1 (bottom right) (n=3-7). In FIG. 6B, cortical neurons were pre-treated with NMDA (50 1μM, 1 h). Two hours after washing NMDA, neurons were treated with the mGluR1 agonist DHPG (50 μM) for 10 min in the absence or presence of LY367385. Total cell lysates were collected and probed with anti-Phospho Akt (Ser473) antibody.
(§4) Because activation of mGluR1α can also stimulate non-selective cation excitatory postsynaptic conductances (EPSCs), we therefore analyzed mGluR1α-dependent currents before and after calpain-mediated truncation. We transfected HEK293 cells with either myc-mGluR1α or myc-mGluR1α936Δ plus GIRK1, GIRK2 or TRPC1.

myc-mGluR1α936Δ = myc-mGluR1α936Δ (Rattus norvegicus, UniProt P23385); assay: DHPG-induced whole-cell currents in HEK293 cells transfected with myc-mGluR1α936Δ; details: 100 μM DHPG
Experimental: as §3, §4

Phospho Akt (Ser473) = assay: Akt phosphorylation (Ser473) in cortical neurons (Western blot); details: DHPG 50 μM, 10 min
Experimental: as §3, with “antibody. Without pretreatment with NMDA, DHPG increased the levels of Phospho-Akt (* p<0.05), an effect blocked by LY367385.” for “antibody.”
As reported in previous studies, mGluR1 activation can stimulate the PI3K-Akt signaling pathway through the mGluRI-Homer-PIEL-PI3K signaling complex. Since the Homer-binding domain of mGluR1α is located in the extreme C-terminus, which is removed after calpain-mediated truncation, it was interesting to determine whether this signaling mechanism remained functional. We first induced mGluR1α truncation by treating cortical neurons with 50 μM NMDA for 1 hour. Two hours after washing out NMDA, neurons were incubated with the mGluRI agonist DHPG (50 μM) for 10 min. Neurons were then lysed and levels of phosphorylated Akt were determined on Western blots. Consistent with a previous study, in cortical neurons that were not pre-treated with NMDA, DHPG induced an increase in phosphorylated Akt levels (p<0.05, n=4, Student's t-test for Control vs. DHPG), an effect which was blocked by the mGluR1 selective antagonist LY367385 (p<0.05, n=4, for DHPG+LY367385 vs. DHPG) (FIG. 6B). […] Thus, mGluR1α-PI3K-Akt signaling pathway was disrupted by calpain-mediated mGluR1α truncation.

cortical neurons = assay: NMDA/DHPG neuronal toxicity in cortical neurons (EthD-1/Calcein AM live/dead)
From the text: In FIGS. 8a and b, cortical neurons were co-transfected with green fluorescent protein (GFP) and vector DNA, myc-mGluR1α or myc-mGluR1α936Δ, respectively. […] Twelve hours later, neurons were stained with EthD-1 to label dead cells. Arrowheads in FIG. 8a indicate EthD-1 positive GFP-expressing neurons. * p<0.05. FIGS. 8c and d are representative photos and bar graphs showing differential roles of endogenous mGluR1 in neuronal toxicity before and after NMDA-induced truncation. Cortical neurons were treated as indicated and were stained with EthD-1 (for dead cells) and calcein AM (for live cells) 24 hours later. * p<0.001.
We then tested whether calpain-mediated truncation of endogenous mGluR1α also alters its roles in excitotoxicity. We used NMDA to elicit mGluR1α truncation and evaluated the roles of mGluR1 in neuronal toxicity by applying DHPG before and after truncation. Fourteen DIV cortical neurons cultured on 18×18 mm coverslips were divided into 6 groups, which received the following treatments, respectively: 1) “Control”: vehicle; 2) “NMDA”: 100 μM NMDA for 1 hour; 3) “DHPG before NMDA”: DHPG, 100 μM, for 1 hour, followed by 100 μM NMDA for 1 hour; 4) “DHPG after NMDA”: NMDA, 100 μM, for 1 hour, followed by 100 μM DHPG for 1 hour; 5) “DHPG+LY before NMDA”: 100 μM DHPG was co-applied with 100 μM LY367385 for 1 hour and followed by 100 μM NMDA for 1 hour; 6) “DHPG+LY after NMDA”: NMDA 100 μM for 1 hour, followed by 100 μM DHPG co-applied with 100 μM LY367385. Twenty-four hours after treatment, all neurons were stained for 20 minutes with 0.5 μM EthD-1 to label dead cells and 2 μM Calcein AM to label live cells. After three washes with culture medium, coverslips were mounted and one microscopy photo was immediately taken from the center area of each coverslip. EthD-1 and Calcein AM positive cells on each photo were then counted. The percentage of cell death was calculated as the number of EthD-1 positive cell/(number of EthD-1 positive cell+number of Calcein AM positive cell)*100%.

mGluR1α = assay: Glutamate/NMDA-induced C-terminal truncation of mGluR1α in cultured cortical neurons (immunoblot)
From the text: Total cell lysates were separated by SDS-PAGE and probed with an antibody against the carboxyl terminus (residue 1142-1160) of mGluR1α. […] Total cell lysates were probed with an anti-myc antibody. […] Total cell lysates were probed with antibodies against mGluR5, G1uR2/3 and VGluT1 respectively.
Total cell lysate was collected immediately after treatment and subjected to SDS-PAGE and immunoblotting with an antibody against the carboxyl terminus (residues 1142-1160) of mGluR1α (FIG. 2A). […] Neurons were transfected with a calcium phosphate precipitation method modified for high transfection rate (Jian et al., Gene Ther 11:1301-1311, 2004).
Cortical neurons were treated with NMDA at the indicated concentrations for 1 h or treated with NMDA (10 μM) for the indicated times. Total cell lysates were separated by SDS-PAGE and probed with antibodies against mGluR1α1142-1160, Results were normalized over control values and are means±s.e.m. of 4 experiments.
To determine whether activation of mGluR1α itself was required for the truncation, two distinct mGluR1α antagonists were applied.
To further characterize NMDA-induced mGluR1α truncation, the concentration- and time-dependencies of the effects of NMDA were studied. Cortical neurons were first incubated with different concentrations of NMDA for a fixed period of time (1 hour) (FIG. 3F). […] In a following experiment, cortical neurons were incubated with 10 μM NMDA for different durations ranging from 1 to 60 min (FIG. 3G).
Cortical neurons were treated with NMDA (10 μM, 1 h). Total cell lysates were separated by SDS-PAGE and probed with antibodies against spectrin and mGluR1α1142-1160, respectively. Only the degradation bands of spectrin (spectrin DB, at ˜145 KD) are shown. […] In FIG. 4C, purified myc-mGluR1α was digested with μ-calpain at the indicated concentrations (U/ml) for 30 min. The digested material was processed for SDS-PAGE and subjected to silver staining or immunoblots with anti-myc or anti-mGluR1α1142-1160 antibodies. […] The 1st lane was the myc-mGluR1α immunoprecipitated from 293 cells; the 2nd and 3rd lanes were immunoprecipitated myc-mGluR1α digested with indicated concentration of calpain. […] FIG. 4F is the alignment of mGluR1 (902-941) and mGluR5 (889-927) surrounding the calpain cleavage site.
In this set of experiments, we determined which protease(s) mediated NMDA-induced truncation of mGluR1α. […] Cortical neurons were pretreated with a calpain inhibitor, the cell-permeable calpain-inhibitor III, or the caspase inhibitor cpm-VAD-CHO for 2 hours and then incubated in the absence or presence of 100 µM NMDA for 1 hour. […] To further confirm calpain activation by NMDA under our experimental conditions, we determined the levels of the calpain-specific spectrin degradation fragments.

myc-mGluR1α [4] = assay: Targeting of myc-mGluR1α in transfected cortical neurons after NMDA (immunostaining); details: NMDA 50 μM, 1 hour; 124 out of 367 neurons
Experimental: In FIG. 7A, cortical neurons were co-transfected with DsRED and myc-mGluR1α. After 48 h, neurons were fixed and stained with anti-myc and anti-DsRED antibodies. Some of the neurons were pre-treated with NMDA (50 μM, 1 h), and recovered for 3 h after washing out NMDA before fixation. Myc-mGluR1α (upper panel) was absent in axons (arrowhead) under control conditions. After pre-treatment with NMDA (lower panel), staining of myc-mGluR1α appeared in the proximal segment of axons. In FIG. 7B, cortical neurons were co-transfected with DsRED and myc-mGluR1α. After 48 h, neurons were fixed and stained with anti-DsRED and anti-mGluR1α1142-1160 antibodies with (lower panel) or without (upper panel) pretreatment with NMDA. Staining for mGluR1α was absent from axons in both conditions. In FIG. 7C, cortical neurons were co-transfected with DsRED and myc-mGluR1α936Δ. After 48 h, neurons were fixed and stained with anti-myc and anti-DsRED antibodies. […]
Previous studies have shown that the C-terminus domain of mGluR1α is crucial for its dendritic localization. […] But in ˜34% of neurons treated with NMDA (124 out of 367 neurons counted), the N-terminal fragment of wild-type mGluR1α could be detected in axons, especially in the proximal segment, whereas immunoreactivity against the C-terminus of mGluR1α was still restricted to dendrites (FIG. 7B).

T1 sequence (P23385 19-1199): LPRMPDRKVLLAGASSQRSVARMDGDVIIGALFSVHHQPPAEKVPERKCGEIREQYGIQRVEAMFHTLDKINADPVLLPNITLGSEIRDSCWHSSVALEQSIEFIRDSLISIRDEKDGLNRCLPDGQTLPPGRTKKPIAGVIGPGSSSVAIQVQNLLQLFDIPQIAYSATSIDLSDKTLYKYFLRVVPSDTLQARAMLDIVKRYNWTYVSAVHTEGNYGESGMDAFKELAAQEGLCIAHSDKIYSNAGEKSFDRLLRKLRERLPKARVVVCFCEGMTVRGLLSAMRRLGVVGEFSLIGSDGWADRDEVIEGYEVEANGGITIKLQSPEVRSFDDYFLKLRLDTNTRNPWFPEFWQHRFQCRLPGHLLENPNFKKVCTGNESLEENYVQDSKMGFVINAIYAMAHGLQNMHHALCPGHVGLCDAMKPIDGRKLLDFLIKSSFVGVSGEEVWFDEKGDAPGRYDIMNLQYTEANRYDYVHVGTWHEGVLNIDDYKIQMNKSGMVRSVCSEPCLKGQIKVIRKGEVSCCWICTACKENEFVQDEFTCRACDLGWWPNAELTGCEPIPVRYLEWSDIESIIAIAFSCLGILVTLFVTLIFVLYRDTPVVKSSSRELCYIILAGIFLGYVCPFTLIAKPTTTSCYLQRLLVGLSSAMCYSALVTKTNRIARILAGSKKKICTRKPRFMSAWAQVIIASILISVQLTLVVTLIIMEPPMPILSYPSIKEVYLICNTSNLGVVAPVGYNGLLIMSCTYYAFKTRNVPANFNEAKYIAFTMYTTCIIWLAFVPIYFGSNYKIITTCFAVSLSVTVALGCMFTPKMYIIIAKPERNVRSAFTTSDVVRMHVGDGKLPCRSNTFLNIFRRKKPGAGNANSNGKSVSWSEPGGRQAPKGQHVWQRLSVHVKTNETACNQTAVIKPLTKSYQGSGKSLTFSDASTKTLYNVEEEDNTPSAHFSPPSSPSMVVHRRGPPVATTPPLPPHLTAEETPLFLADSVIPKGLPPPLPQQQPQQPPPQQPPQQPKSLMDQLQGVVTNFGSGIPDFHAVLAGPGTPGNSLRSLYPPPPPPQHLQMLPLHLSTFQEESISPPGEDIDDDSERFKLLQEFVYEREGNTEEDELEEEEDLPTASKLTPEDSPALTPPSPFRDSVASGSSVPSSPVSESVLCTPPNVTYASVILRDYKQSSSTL
Sequence of myc-mGluR1α936Δ (P23385 19-936 limits assumed, stated change not applied): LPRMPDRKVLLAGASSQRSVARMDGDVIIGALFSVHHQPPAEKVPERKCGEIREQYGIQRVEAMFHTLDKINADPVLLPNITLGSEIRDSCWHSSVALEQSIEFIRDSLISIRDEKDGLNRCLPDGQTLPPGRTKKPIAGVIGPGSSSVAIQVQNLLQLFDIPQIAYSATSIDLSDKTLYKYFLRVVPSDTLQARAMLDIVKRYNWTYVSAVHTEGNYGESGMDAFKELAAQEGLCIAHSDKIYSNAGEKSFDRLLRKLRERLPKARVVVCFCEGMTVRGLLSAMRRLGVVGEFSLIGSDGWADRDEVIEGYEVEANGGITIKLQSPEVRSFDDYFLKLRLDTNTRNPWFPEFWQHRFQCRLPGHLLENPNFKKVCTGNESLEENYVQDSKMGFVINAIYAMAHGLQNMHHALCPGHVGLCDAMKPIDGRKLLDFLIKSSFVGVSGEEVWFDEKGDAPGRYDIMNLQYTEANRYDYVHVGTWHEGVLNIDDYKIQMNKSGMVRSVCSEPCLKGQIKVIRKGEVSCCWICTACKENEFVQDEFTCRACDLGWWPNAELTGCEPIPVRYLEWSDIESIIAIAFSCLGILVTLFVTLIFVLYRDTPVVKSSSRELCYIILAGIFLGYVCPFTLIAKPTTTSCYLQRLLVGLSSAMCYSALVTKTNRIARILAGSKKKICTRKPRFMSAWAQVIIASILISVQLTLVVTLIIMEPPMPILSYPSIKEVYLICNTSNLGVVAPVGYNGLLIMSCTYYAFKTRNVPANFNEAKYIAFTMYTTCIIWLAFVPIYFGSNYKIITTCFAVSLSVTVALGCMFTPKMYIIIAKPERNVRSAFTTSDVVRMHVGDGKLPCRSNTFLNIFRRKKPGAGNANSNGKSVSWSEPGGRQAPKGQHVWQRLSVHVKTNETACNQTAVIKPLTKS

SMILES | calcium transient, max. ΔF/F (myc-mGluR1α [1]) | change in fluorescent calcium signals (myc-mGluR1α [2]) | average amplitude of DHPG-induced whole-cell current (myc-mGluR1α [3]; myc-mGluR1α/GIRK1,2-transfected cells) | mean amplitude of DHPG-induced whole-cell current (myc-mGluR1α [3]; myc-mGluR1α/TRPC1-transfected cells) | mean amplitude of DHPG-induced whole-cell current (myc-mGluR1α936Δ; myc-mGluR1α936Δ/GIRK1,2-transfected cells) | mean amplitude of DHPG-induced whole-cell current (myc-mGluR1α936Δ; myc-mGluR1α936Δ/TRPC1-transfected cells) | phosphorylated Akt levels (Phospho Akt (Ser473); 2 h after NMDA 50 μM 1 h pre-treatment) | phosphorylated Akt levels (Phospho Akt (Ser473); neurons not pre-treated with NMDA) | cell death (cortical neurons; DHPG 100 μM 1 hour after 100 μM NMDA 1 hour, 24 hours after) | cell death (cortical neurons; DHPG 100 μM 1 hour before 100 μM NMDA 1 hour, 24 hours after) | minimum time required to induce truncation (mGluR1α; 10 μM NMDA) | treatment time after which truncation was maximal (mGluR1α; 10 μM NMDA) | EC50 (mGluR1α; 1 hour incubation) | minimum concentration required to induce a significant mGluR1α truncation (mGluR1α; 1 hour incubation) | neurons with N-terminal fragment of mGluR1α detected in axons (myc-mGluR1α [4]) | cell death (cortical neurons; 100 μM NMDA for 1 hour, 24 hours after treatment)
N[C@H](C(=O)O)c1cc(O)cc(O)c1 [DHPG] | 30.6±4.2% | no change | −24.2±6.3 pA | −36.7±9.6 pA | −1.4±0.8 pA | −9.7±6.8 pA | failed to increase | increase | 54% | 29% | – | – | – | – | – | –
CN[C@H](CC(=O)O)C(=O)O [NMDA] | – | – | – | – | – | – | – | – | – | – | 5 min | 20 min | ~10 µM | 10 µM | ~34% | 37%
